This note sets out measurements from patent US20250228858A1, “ANTI-CANCER COMBINATION THERAPY” (Boehringer Ingelheim International GmbH, priority 2023, published 2025).

Test [1] deals with HER2-overexpressing human NSCLC cell line Calu-3. The experiment in a line: Calu-3 subcutaneous xenograft, zongertinib with trastuzumab and/or pertuzumab. The test is classed as in vivo, CB-17/Icr-Prkdc^scid mice. As to conditions: day 42, zongertinib 20 mg/kg qdx42 p.o., trastuzumab 20 mg/kg q7dx6 i.p., pertuzumab 20 mg/kg q7dx6 i.p., alone or combined. Here is the method:
The study is performed in human NSCLC cell line Calu-3 grown as subcutaneous xenografts in CB-17/Icr-Prkdc^scid mice. Day 1 was the first day, day 42 the last day of treatment and final day of analysis.
Calu-3 is a HER2-overexpressing human NSCLC cell line that can be obtained from ATCC (lot 614492062). Cells are cultured in T75, T175 and 5-Layer tissue culture flasks at 37° C. and 5% CO2. The medium used is EMEM (Lonza BE12-662F) supplemented with 10% FCS (Cytiva HyClone Characterized FBS, SH30084.03n), 2 mM Glutamax (Gibco 35050-038), 0.5 mM sodium pyruvate (Sigma S8636). Cultures are split once weekly with a ratio of 1:1.5-1:2.
To establish subcutaneous tumors, Calu-3 cells are harvested by centrifugation, washed and resuspended in PBS+5% FCS at 7×10^7 cells/ml. 50 μl cell suspension containing 3.5×10^6 cells is injected subcutaneously into the right flank of mice (1 site per mouse).
Mice in the control group are treated with vehicle, i.e.: • (i) 0.5% Natrosol, administered once daily for the duration of the treatment intragastrally by gavage needle with a volume of 10 ml/kg body weight; and • (ii) saline (0.9%), administered once every week intraperitoneally with a volume of 10 ml/kg.
Tumor volumes and side effects are monitored as described in Example 1 (see paragraph 1.1.6).
(§1) The statistical evaluation of the tumor volume and the body weight is conducted on day 21 (last day of the study). Apart from this, statistical analysis was performed as described in Example 1 (see paragraph 1.1.7), with no evaluation of tumor growth after stop of treatment.

Test [2] has as its system HER2-overexpressing human breast cancer cell line SUM190PT. The test is classed as in vivo. Here is the method:
The study is performed in human breast cancer cell line SUM190PT grown as subcutaneous xenografts in NMRI-Foxn1^nu mice. Day 1 was the first day, day 21 the last day of treatment and final day of analysis.
Cells are obtained and cultured as described in Example 8 (see paragraph 8.1.2).
Capecitabine can be purchased from Roche Pharma AG. Capecitabine is suspended with 0.5% Natrosol and administered intragastrally with a volume of 10 ml/kg.
Tumor volumes and side effects are monitored as described in Example 1 (see paragraph 1.1.6), except that control animals are sacrificed when the median tumor volume of the group reaches a size of approximately 540 mm^3.
as §1

The subject of another test is parental NCI-N87 cells. Nature of the test: Proliferation assay (CellTiter Glo), parental NCI-N87 cells. The test is classed as cell-based, human. As to conditions: 5 days of incubation, in vitro. Here is the method:
(§2) Per well, 1000 cells are seeded in 40 μL medium in white, sterile 384-well culture plates (TC-treated; PerkinElmer #6007680) and incubated overnight in a humidified incubator at 37° C. and 5% CO2. 0.1% DMSO-control or serial compound dilution in triplicates are added. […] After 5 days of incubation with test compounds, the cells plates are measured upon addition of CellTiter Glo Luminescent Cell Viability Reagent (Promega, #G9243) to assess cell viability. The plates are placed on a shaker for five minutes and additionally incubated for 10 minutes at room temperature to induce cell lysis and to stabilize the luminescent signal. The luminescent signal of each well is measured in an EnSpire Multilabel Plate Reader 658 (PerkinElmer). The dose response curves are fit and visualized using Boehringer Ingelheim's proprietary software MegaLab and PRISM (GraphPad Inc.).
(ATP-based viability assays read luminescence as a measure of living cells.)

For test [3], the system named is T-DXd-resistant NCI-N87 cells. Nature of the test: Proliferation assay (CellTiter Glo), T-DXd resistant NCI-N87 cells. As to conditions: 5 days of incubation, in vitro. The test is classed as cell-based, human. Here is the method: as §2

*1 amine or outer side, *2 acyl side, *3 side chain or, on linkers, in order; H or OH if unused. Where a SMILES comes first, the peptide text is derived from it. [ ]: non-standard residue; d: D form. The star is where a group is joined. Exatecan = CC[C@@]1(O)C(=O)OCc2c1cc1n(c2=O)Cc2c-1nc1cc(F)c(C)c3c1c2[C@@H](N*)CC3; Hexanoyl(6-maleimido) = O=C1C=CC(=O)N1CCCCCC(=O)*; NHCH2OCH2CO = O=C(COCN[*:1])[*:2]

pertuzumab [reference compound]: the “Regressions >30%” value in test [1] (tumors regressed/total (partial response)) is given as 0/10. Besides, the TGI in test [1] is 89%.

As to `CCCCCOC(=O)Nc1nc(=O)n([C@@H]2O[C@H](C)[C@@H](O)[C@H]2O)cc1F` [Capecitabine, capecitabine, reference compound], the “Regressions >30%” value in test [2] (day 21, tumors regressed/total (partial response), zongertinib 10 mg/kg qdx21 p.o., capecitabine 400 mg/kg qdx21 p.o., trastuzumab 20 mg/kg q7dx3 i.p., alone or combined) is on record as 0/8. In addition, in test [2] (day 21, zongertinib 10 mg/kg qdx21 p.o., capecitabine 400 mg/kg qdx21 p.o., trastuzumab 20 mg/kg q7dx3 i.p., alone or combined), the TGI was 106%. In addition, the “effect on tumor growth (median tumor volumes over time)” value in test [2] (zongertinib 10 mg/kg qdx21, capecitabine 400 mg/kg qdx21, trastuzumab 20 mg/kg q7dx3, alone or triple combination) is recorded as “delayed tumor growth but did not shrink tumors”.

Turning to `CC[C@@]1(O)C(=O)OCc2c1cc1n(c2=O)Cc2c-1nc1cc(F)c(C)c3c1c2[C@@H](NC(=O)COCNC(=O)CNC(=O)[C@H](Cc1ccccc1)NC(=O)CNC(=O)CNC(=O)CCCCCN1C(=O)C=CC1=O)CC3` [deruxtecan, reference compound] ({Hexanoyl(6-maleimido)}-GGFG[NHCH2OCH2CO]-Exatecan), the figures for the “sensitivity (dose response, cell viability)” value (in the test on parental NCI-N87 cells; in test [3]) were “sensitive” and “resistant”, respectively.
